Reference: patent US20080119481A1, “Crystalline forms of 6-methoxy-8-[4-(1-(5-fluoro)-quinolin-8-yl-piperidin-4-yl)-piperazin-1-yl]-quinoline” (Wyeth, priority 2006, published 2008)
Several values for one entry are separate records, joined by “and”; a condition that tells them apart may be missing. Identical values can stand only once.

## COc1cc(N2CCN(C3CCN(c4ccc(F)c5cccnc45)CC3)CC2)c2ncccc2c1 (hydrate or solvate) [Form A, 6-methoxy-8-[4-(1-(5-fluoro)-quinolin-8-yl-piperidin-4-yl)-piperazin-1-yl]-quinoline]
  melting point: ~ 196 °C and 198 °C
